# What was measured:
# [1] = Chemical solubility and stability / recovery from medium (HPLC-UV); format: physicochemical
# Procedure: The solubility and stability of CPF in water, medium and DMSO (the vehicle used to prepare stock solutions), were checked in preliminary assays, mimicking the actual experimental conditions: maximum concentration used; 37 °C; controlled pH; different incubation times. Samples in amber glass vials with screw caps were stored at −80 °C until the analysis for quantifying CPF by means of HPLC-UV was carried out.
# Plastic-bound fraction was injected as such.
# [2] = Cross-contamination among wells; format: physicochemical
# Procedure: In the adjacent wells to those containing CPF, at the applied concentrations, a corresponding amount of DMSO (vehicle control) was added. At the end of the experiment, the content of these control wells was stored at −80 °C until HPLC analysis. The CPF content in control wells served as an indication of possible contamination across wells, due to CPF evaporation.
# Adsorption to plastic = format: in vitro ADME
# Procedure: Since CPF is a lipophilic chemical, its potential adsorption to the plastic wells was evaluated during the kinetic experiments. At the end of each experiment, the content (cells and medium) of each sample well was removed. Wells were washed twice with PBS, to remove possible cellular debris and 3 mL methanol (MeOH) were added. The plate was sealed with Parafilm and kept under gentle shaking at room temperature for 2h, before transferring the complete volume into amber glass vials with screw caps. The fractions were stored at −80 °C until HPLC analysis.
# [3] = Non-specific binding to the matrix (Matrigel, without cells); format: in vitro ADME; settings: no cells
# Procedure: Due to the presence of Matrigel (Reduced Growth Factors), pre-coated well plates were treated in parallel, with the same experimental conditions of the main experiment, but in the absence of cells. In order to determine if and how CPF was sequestered by proteins in Matrigel, the content of the pre-coated wells was transferred into amber glass vials with screw caps and stored at −80 °C until HPLC analysis. For all these analyses, 4 biological replicates were carried out.
# [4] = system: CYP and GST gene expression in hiPSC-derived NSCs undergoing differentiation; test: qPCR analysis of CYP and GST gene expression after CPF treatment; format: cell-based, human; settings: 21 μM CPF
# Procedure: Analysis of gene expression by qPCR was performed in hiPSC-derived NSCs undergoing differentiation upon single and repeated treatment with 21 μM CPF or solvent control (0.1 % DMSO), collecting samples after 1, 3, 6 and 24 h (as shown in Fig. 2). RNA was isolated using the RNAqueous®-Micro Kit (ThermoFisher) according to manufacturer's instructions, and 500 ng of total RNA was reverse transcribed by using the High Capacity cDNA Reverse Transcription Kit (as directed, ThermoFisher).
# qPCR reactions were run in duplicate using TaqMan® Gene Expression Master Mix (ThermoFisher) and the TaqMan gene expression assays shown in Table 1 (all from ThermoFisher).
# Fluorescent emission was recorded in real-time using the ABI PRISM Sequence Detection System 7900HT (ThermoFisher). PCR amplification conditions consisted of 45 cycles with primers annealing at 60 °C. Relative RNA quantities were normalized to the reference genes GAPDH and Bactin and untreated cells were used to set calibrating conditions (ΔΔCt Method). Three biological replicates were performed.
# BDNF protein = BDNF protein levels by immunocytochemistry and HCI; format: cell-based, human; settings: 14 days of CPF treatment, dose-dependent, vs solvent control
# Procedure: (§1) After 14 days of treatment with CPF at the nominal concentrations of 18.45, 21.21, 24.39, 28.05, 32.26, and 37.10 μM (37.10 μM equal to IC20), obtained considering a 1-to-1.15 dilution factor, cells were fixed with 4 % formaldehyde for 10 min and washed three times in PBS 1 × . After 15 min permeabilization with PBS 1X containing 0.1 % Triton-X-100 and 3,5 % bovine serum albumin (BSA), cells were further incubated with 3,5 % BSA and 1X PBS (blocking solution) for 15 min, to prevent nonspecific binding of antibodies, and then incubated at 4 °C overnight with primary antibodies in blocking solution. […] Neurite outgrowth and BDNF protein levels were assessed by staining the cells with an antibody specific for β-III-tubulin (mouse, 1:500, ThermoFisher), and one for BDNF (rabbit, 1:70, ThermoFisher). […] Mean fluorescence intensity and the relative percentages of immunocytochemically-defined cell types were quantified using the ArrayScan™ XTI High Content Platform (Cellomics) (ThermoFisher) and the ArrayScan algorithm 'Neuronal Profiling V4.1', as previously described. […] Other masks were applied to identify the neurites, their branch points, and the fluorescence intensity levels of SYP and PSD95 puncta, or BDNF protein. […]
# [5] = system: hiPSC-derived NSCs undergoing differentiation; test: Proportion of neurons (β-III-Tubulin+) and astrocytes (GFAP+) by immunocytochemistry and HCI; format: cell-based, human; settings: 14 days
# Procedure: as §1
# [6] = system: hiPSC-derived NSCs undergoing differentiation; design: method as in PMID 32093744; settings: 14-day treatment, resazurin, cited from earlier work
# [7] = system: hiPSC-derived NSCs undergoing differentiation; design: method as in PMID 32093744; settings: 14-day treatment; cited from earlier work
# [8] = cited from earlier work
# [9] = cited from earlier work; remark: listed apart in the source
# neuron-only cultures = settings: cited from earlier work
smiles,measurement,setting,value
"CCOP(=S)(OCC)Oc1nc(Cl)c(Cl)cc1Cl [CPF, Chlorpyrifos]",Solubility and stability in aqueous medium solutions and DMSO,"[1]; maximum concentration, 37 °C, controlled pH, different incubation times",soluble and chemically stable
same,Recovery from medium,[1]; serum-free medium,108.2 ± 18.6%
same,Cross-contamination among wells,[2]; first day of treatment,Not detectable
same,Cross-contamination among wells,[2]; last day of treatment,Not detectable
same,Bound-to-plastic fraction,Adsorption to plastic; first day of treatment,0−8.4%
same,Bound-to-plastic fraction,Adsorption to plastic; last day of treatment,7.5−16.5%
same,Bound-to-matrigel fraction,[3]; first day of treatment,1.7−4.2%
same,Bound-to-matrigel fraction,[3]; last day of treatment,5.8−6.5%
same,CYP-2C9 gene expression,[4]; first day of treatment,tendency towards upregulation
same,GST gene expression,[4]; first day of treatment,did not change
same,CYP-1A1 gene expression,"[4]; first day of treatment, after 3 h, 6 h and 24 h",Up-regulation
same,GST-A4 gene expression,"[4]; first day, after 6 h treatment",modest decrease
same,CYP gene expression,[4]; repeated treatment,did not significantly change
same,GST gene expression (all analysed GST genes),[4]; repeated treatment,significant downregulation
same,CYP-2C19 gene expression,"[4]; repeated treatment, after 1 h",transient upregulation
same,increase of BDNF protein levels,BDNF protein,≤ 55%
same,increase of neuronal cell percentage (β-III-Tubulin+),[5]; all tested concentrations,10–15%
same,increase of GFAP+ cell percentage vs solvent control,[5]; concentration dependent,2- to 2.8 fold
same,IC5 (nominal concentration causing 5 % decrease of viability),[6],21 µM
same,IC20,"[6]; nominal concentration, read-out: IC20 (viability)",37.1 µM
same,in vitro nominal LOAEC for synaptogenesis,[7],21 µM
same,vapour pressure,[8]; at 25 °C,2.02 × 10^−5 mm Hg
same,"log Kow, octanol/water partition coefficient",[8],4.96
same,"exposure in new-borns, concentration in blood",[9],up to 4.9 μM
same,"exposure in new-borns, concentration in meconium",[9],23.6 µM
same,"concentration from which inhibition of neurite length, neurite number and branch points was observed",neuron-only cultures,10 µM

# Source: article PMC7772889, “Integrating biokinetics and in vitro studies to evaluate developmental neurotoxicity induced by chlorpyrifos in human iPSC-derived neural stem cells undergoing differentiation towards neuronal and glial cells” (Reproductive Toxicology (Elmsford, N.y.), 2020)
